Earlier results on 5 compounds are cited in patent US20140107053A1, “APPLES WITH HIGH POLYPHENOLIC CONTENT” (CORESSENCE LIMITED, priority 2006, published 2014).

The conditions of data set [1]: compared to (−)-epicatechin monomers (Shoji et al. 2006).
The conditions of data set [2]: indicated by Tmax values in human studies.

As for `Oc1cc(O)c2c(c1)O[C@H](c1ccc(O)c(O)c1)[C@H](O)[C@H]2c1c(O)cc(O)c2c1O[C@H](c1ccc(O)c(O)c1)[C@@H](O)C2` [Apple B1, epicatechin-(4β-8)-catechin], the “detection in human plasma” value is listed as “detected at low levels”.
For `Oc1cc(O)c2c(c1)O[C@H](c1ccc(O)c(O)c1)[C@H](O)[C@H]2c1c(O)cc(O)c2c1O[C@H](c1ccc(O)c(O)c1)[C@H](O)C2` [Apple B2, epicatechin-(4β-8)-epicatechin], the “detection in human plasma” value is “detected at low levels”.
On to `Oc1cc(O)c2c(c1)O[C@H](c1ccc(O)c(O)c1)[C@H](O)[C@H]2c1c(O)cc2c(c1O)C[C@@H](O)[C@@H](c1ccc(O)c(O)c1)O2` [Apple B5, epicatechin-(4β-6)-epicatechin], for which the detection in plasma result (after chocolate consumption (Holt et al. 2002)) is on record as “could not be detected”.
With `O.Oc1cc(O)c2c(c1)O[C@H](c1ccc(O)c(O)c1)[C@@H](O)C2` [catechin], in data set [1], the bioavailability result is on record as “relatively low bioavailability”. For the same compound, the site of absorption result in data set [2] is listed as “absorbed mainly in the small intestine”.
In the case of epicatechin, in data set [2], the site of absorption entry is “absorbed mainly in the small intestine”.
